The record followed here is patent publication US20220087987A1, “A METHOD FOR TREATING SWI/SNF COMPLEX-DEFICIENT CANCERS COMPRISING GLUTATHIONE (GSH) METABOLIC PATHWAY INHIBITOR” (National Cancer Center, priority 2018, published 2022).

Where a name gives a salt, the structure may show the parent alone. Read-outs that look alike come from different tables or passages of the source.

Type in all cases: cell-based, human
In one series the test system is p53, p21. Briefly: Immunoblot for p53 and p21. The conditions noted are these: ARID1A-WT and ARID1A-KO HCT116; 50 μM PRIMA-1, 50 μM APR-246, 10 μM Nutlin3a, 16 hrs. How it is done: The soluble fractions of whole-cell lysates were mixed with SDS sample buffer. […] The soluble fractions were mixed with SDS sample buffer. Tumor samples derived from xenografts were weighed and washed with PBS. […] The homogenized tumor samples were diluted in an additional 450 μl of NETN420 buffer, incubated for 30 min on ice, and centrifuged at 4° C. for 10 min at 15,000 rpm. The soluble fractions of whole-cell lysates were mixed with SDS sample buffer. Proteins were separated by SDS-PAGE, transferred to PVDF membranes, and immunoblotted with the indicated antibodies. β-actin was used as a loading control. Membranes were blocked overnight at 4° C. or for 1 hr at 25° C. with PVDF Blocking Reagent for Can Get Signal (TOYOBO) and then probed with Can Get Signal Solution 1 (TOYOBO) containing primary antibodies. After washing with TBS containing 0.1% Tween 20, the membranes were incubated with TBS containing 0.1% Tween 20, 1% BSA, and horseradish peroxidase-conjugated anti-mouse or anti-rabbit secondary antibodies, and visualized using Western Lightning ECL Pro (Perkin Elmer). Chemiluminescence signals were measured using LAS-3000 Imaging System (Fujifilm). Signal intensities were measured using Multi Gauge software.

Series [1] can be described thus: Drug library screen, cell viability (CellTiter-Glo). The conditions noted are these: human; HCT116 ARID1A-WT; 10 μM for 5 days; relative to cells treated with solvent (DMSO); read-out: Cell viability, WT. In a few lines:
(§1)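 Luminescent ATP read-out (CellTiter-Glo) at day 5, normalised to solvent (DMSO) controls, in paired HCT116 lines, ARID1A knockout versus wild type. Candidates selected where KO cells fell below 40% viability and WT cells stayed above 80%.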

The subject of a further series is ARID1A-KO HCT116 cells. The description is as above. The conditions noted are these: Homo sapiens, HCT-116, 120 h, read-out: Cell viability, KO. A digest of the protocol:
as §1

The subject of a further series is ROS. Kind of series: Detection of ROS in cells (ROS-Glo). The note with it: ARID1A-deficient versus ARID1A-proficient ovarian and other cancer cells. How it is done: GSH, ROS and apoptosis were detected using the GSH/GSSG-Glo Assay (Promega) and/or the GSH-Glo Assay (Promega), the ROS-Glo Assay (Promega), and the Caspase-Glo 3/7 Assay, respectively. To measure levels of GSH, ROS and apoptosis after drug treatment, cells were trypsinized, counted, reseeded at the specified density in 96-well plates and exposed to the indicated concentrations of drugs. After 16-48 hrs, luminescence was measured using an Envision Multi-label plate reader (PerkinElmer). To measure levels of GSH and ROS after siRNA-mediated knockdown, cell lines were transfected with siRNAs (25 nM) using Lipofectamine RNAiMAX. After 48 hrs, cells were trypsinized and transfected repeatedly with siRNAs (25 nM) using Lipofectamine RNAiMAX. Cells were trypsinized after a further 48 hrs, counted, and reseeded at the specified density in 96-well plates. After 72-120 hrs, luminescence was measured using an Envision Multi-label plate reader (PerkinElmer). Cell viability was also measured using the CellTiter-Glo Luminescent Cell Viability Assay (Promega). Caspase-3/7, GSH, and ROS levels were normalized against cell viability. The GSH/GSSG ratio was calculated as the GSH-GSSG signal divided by the GSSG/2 signal. Relative signal ratios in treated samples were normalized against untreated samples.

Another series deals with GSH. Kind of series: Detection of GSH in cells (GSH/GSSG-Glo, GSH-Glo). The conditions noted are these: ARID1A-deficient versus ARID1A-proficient ovarian and other cancer cells.
The subject of series [2] is ARID1A-proficient and ARID1A-deficient cancer cell lines. Briefly: Cell viability and colony formation in cancer cell line panel.
The mark [3] stands for this setting: HCT116 ARID1A-KO, 10 μM for 5 days, relative to cells treated with solvent (DMSO).

Consider `COc1ccc(C2=N[C@@H](c3ccc(Cl)cc3)[C@@H](c3ccc(Cl)cc3)N2C(=O)N2CCNC(=O)C2)c(OC(C)C)c1` [Nutlin3a], for which, in the series on p53, p21, the “expression of p53 and p21” value is “increased the p53 level and upregulated the p53 target p21”.
For the molecule `Oc1nc(-c2ccc(C(F)(F)F)cc2)nc2c1CSCC2` [XAV939], the viability at 5 days, 10 μM in series [1] turned out to be 87%. Further, the viability at 10 µM in the series with ARID1A-KO HCT116 cells (setting [3]) was 111%.
Taken in the same sequence, the figures for `COc1cc(O)c(CC=C(C)C)c(O)c1C(=O)/C=C/c1ccc(O)cc1` [Xanthohumol] were 104% and 112%.
Take `C[C@@H](N)[C@H]1CC[C@H](C(=O)Nc2ccncc2)CC1` [Y27632]: the viability at 5 days, 10 μM in series [1] is 160%. Further, the viability at 10 µM in the series on ARID1A-KO HCT116 cells amounted to 98.6%.
As for `COCCn1c2c([n+](Cc3cnccn3)c1C)C(=O)c1ccccc1C2=O` [YM155], the viability at 5 days, 10 μM in series [1] was determined as 2.67%. In addition, the viability at 10 µM with ARID1A-KO HCT116 cells (setting [3]) was found to be 3.24%.
In the same order, the values of `CCCOc1ccccc1-c1nc2nn[nH]c2c(=O)[nH]1` [Zaprinast] are 93.5% and 82.6%.
For the molecule `CC(=O)OC[C@H]1O[C@@H]([S-])[C@H](OC(C)=O)[C@@H](OC(C)=O)[C@@H]1OC(C)=O.CCP(CC)CC.[Au+]` [auranofin], in the series on ROS, the “ROS level in cancer cell lines” value is listed as “more evident in ARID1A-deficient cancer cells”. In the series on GSH, the “GSH level in cancer cell lines” value is on record as “more evident in ARID1A-deficient cancer cells”. The “sensitivity of ARID1A-deficient versus ARID1A-proficient cancer cells” value in series [2] (four ARID1A-proficient and six ARID1A-deficient cell lines, cell viability, colony formation) is “more sensitive to the TrxR inhibitor auranofin than ARID1A-proficient cells”.
With `CC(C)C[C@H](NC(=O)[C@H](Cc1ccccc1)NC(=O)c1cnccn1)B(O)O` [bortezomib], the viability at 5 days, 10 μM in series [1] stood at 3.06%. Besides, the viability at 10 µM in the series with ARID1A-KO HCT116 cells (setting [3]) is 5.81%.
In the same order, the values of `CN(C)CCCN1c2ccccc2Sc2ccc(Cl)cc21` [chlorpromazine hydrochloride] are 7.83% and 15.6%.
Regarding `C[C@@H](Oc1cc(-c2cnn(C3CCNCC3)c2)cnc1N)c1c(Cl)ccc(F)c1Cl` [crizotinib], in series [1], the viability at 5 days, 10 μM amounted to 2.29%. In the series with ARID1A-KO HCT116 cells (setting [3]), the viability at 10 µM is 5.88%.
In the case of `CC1=C2C[C@H]3[C@@H](CC=C4C[C@@H](O)CC[C@@]43C)[C@@H]2CC[C@]12O[C@@H]1C[C@H](C)CN[C@H]1[C@H]2C` [cyclopamine], the viability in series [1] is 49.3%. Besides, in the series with ARID1A-KO HCT116 cells (setting [3]), the viability at 10 µM was 86.7%.
On to `Cc1nc(Nc2ncc(C(=O)Nc3c(C)cccc3Cl)s2)cc(N2CCN(CCO)CC2)n1` [dasatinib], for which, in series [1], the viability at 5 days, 10 μM amounted to 33.5%. In the series with ARID1A-KO HCT116 cells (setting [3]), the viability at 10 µM was 37.8%.
Taken in the same sequence, the figures for `CNCCCN1c2ccccc2CCc2ccccc21` [desipramine hydrochloride] were 34.6% and 63.1%.
In the same order, the values of `C#Cc1cccc(Nc2ncnc3cc(OCCOC)c(OCCOC)cc23)c1` [erlotinib] are 48.1% and 48.6%.
With `CO[C@H]1C[C@@H]2CC[C@@H](C)[C@@](O)(O2)C(=O)C(=O)N2CCCC[C@H]2C(=O)O[C@H]([C@H](C)C[C@@H]2CC[C@@H](OCCO)[C@H](OC)C2)CC(=O)[C@H](C)/C=C(\C)[C@@H](O)[C@@H](OC)C(=O)[C@H](C)C[C@H](C)/C=C/C=C/C=C/1C` [everolimus], in series [1], the viability at 5 days, 10 μM was determined as 77.4%. In addition, in the series with ARID1A-KO HCT116 cells (setting [3]), the viability at 10 µM was 77.1%.
Taken in the same sequence, the figures for `COc1cc2ncnc(Nc3ccc(F)c(Cl)c3)c2cc1OCCCN1CCOCC1` [gefitinib] were 54.5% and 72.4%.
In the same order, the values of `Cc1ccc(NC(=O)c2ccc(CN3CCN(C)CC3)cc2)cc1Nc1nccc(-c2cccnc2)n1` [imatinib mesylate] are 37.2% and 55.4%.
For `O=C1NC(=O)c2c1c1c3ccccc3[nH]c1n1cncc21` [isogranulatimide], in series [1], the viability at 5 days, 10 μM stood at 118%. Also, the viability at 10 µM in the series on ARID1A-KO HCT116 cells (setting [3]) was found to be 151%.
Taken in the same sequence, the figures for `CS(=O)(=O)CCNCc1ccc(-c2ccc3ncnc(Nc4ccc(OCc5cccc(F)c5)c(Cl)c4)c3c2)o1` [lapatinib] were 52.7% and 78.4%.
As for `Nc1cccc2c1CN(C1CCC(=O)NC1=O)C2=O` (centres unmarked) [lenalidomide], the viability at 5 days, 10 μM in series [1] was 91.1%. Also, the viability at 10 µM in the series on ARID1A-KO HCT116 cells (setting [3]) was determined as 112%.
Taken in the same sequence, the figures for `Cc1cn(-c2cc(NC(=O)c3ccc(C)c(Nc4nccc(-c5cccnc5)n4)c3)cc(C(F)(F)F)c2)cn1` [nilotinib] were 85.8% and 91.6%.
Taken in the same sequence, the figures for `CCCCCCCCCCC[C@@H](C[C@@H]1OC(=O)[C@H]1CCCCCC)OC(=O)[C@H](CC(C)C)NC=O` [orlistat] were 84.6% and 86.1%.
For `Cc1ccc(Nc2nccc(N(C)c3ccc4c(C)n(C)nc4c3)n2)cc1S(N)(=O)=O` [pazopanib], the viability at 5 days, 10 μM in series [1] was determined as 19.8%. Moreover, the viability at 10 µM in the series with ARID1A-KO HCT116 cells (setting [3]) stood at 39.8%.
As for `CNC(=O)c1cc(Oc2ccc(NC(=O)Nc3ccc(Cl)c(C(F)(F)F)c3)cc2)ccn1` [sorafenib], the viability at 5 days, 10 μM in series [1] came to 61.4%. In addition, the viability at 10 µM with ARID1A-KO HCT116 cells (setting [3]) was determined as 70.4%.
Take `O=C(O)c1cc(/N=N/c2ccc(S(=O)(=O)Nc3ccccn3)cc2)ccc1O` [sulfasalazine]: in series [2] (cell viability after 3 days), the “sensitivity of ARID1A-deficient TOV21G versus ARID1A-proficient RMG-I ovarian cancer cells” value is reported as “more sensitive than ARID1A-proficient RMG-I ovarian cancer cells”.
On to `CCN(CC)CCNC(=O)c1c(C)[nH]c(/C=C2\C(=O)Nc3ccc(F)cc32)c1C` [sunitinib malate], for which the viability at 5 days, 10 μM in series [1] is 3.23%. For the same molecule, in the series with ARID1A-KO HCT116 cells (setting [3]), the viability at 10 µM is 5.95%.
Taken in the same sequence, the figures for `CC(C)(C)c1cc(O)ccc1O` [t-Butylhydroquinone (BHQ), t-Butylhydroquinone] were 95.4% and 96.6%.
Taken in the same sequence, the figures for `CC1(C)CCC(C)(C)c2cc(NC(=O)c3ccc(C(=O)O)cc3)ccc21` [tamibarotene] were 77.3% and 101%.
Taken in the same sequence, the figures for `Cn1nnc2c(C(N)=O)ncn2c1=O` [temozolomide] were 84.4% and 104%.
For the molecule `CO[C@H]1C[C@@H]2CC[C@@H](C)[C@@](O)(O2)C(=O)C(=O)N2CCCC[C@H]2C(=O)O[C@H]([C@H](C)C[C@@H]2CC[C@@H](OC(=O)C(C)(CO)CO)[C@H](OC)C2)CC(=O)[C@H](C)/C=C(\C)[C@@H](O)[C@@H](OC)C(=O)[C@H](C)C[C@H](C)/C=C/C=C/C=C/1C` [temsirolimus], the viability at 5 days, 10 μM in series [1] came to 82.1%. In addition, in the series on ARID1A-KO HCT116 cells (setting [3]), the viability at 10 µM amounted to 75%.
In the same order, the values of `O=C1CCC(N2C(=O)c3ccccc3C2=O)C(=O)N1` (centres unmarked) [thalidomide] are 95% and 107%.
Taken in the same sequence, the figures for `CC1=C(/C=C/C(C)=C/C=C/C(C)=C/C(=O)O)C(C)(C)CCC1` [tretinoin] were 77.7% and 96.3%.
Taken in the same sequence, the figures for `O=C(CCCCCCC(=O)Nc1ccccc1)NO` [vorinostat] were 2.82% and 6.02%.
